Measurements from patent US8754227B2, “Metalloenzyme inhibitor compounds” (Viamet Pharmaceuticals, Inc., priority 2010, dated 2014).
Values after ≈ are worked out from the molar mass of the structure shown.

What was measured:
CYP2C9 = CYP2C9 (Homo sapiens (Human), UniProt P11712); assay: Inhibition of liver cytochrome P450 enzymes, pooled human liver microsomes; assay type: in vitro ADME
Method: (§1) Solutions of each test compound were separately prepared at concentrations of 20000, 6000, 2000, 600, 200, and 60 μM by serial dilution with DMSO:MeCN (50:50 v/v). […] The mixed inhibitor solutions were then diluted 20-fold with DMSO:MeCN:deionized water (5:5:180 v/v/v) to concentrations of 300, 100, 30, 10, 3, 1, 0.3, and 0.1 μM. The percent of organic solvent attributable to the test compound or inhibitor mixture in the final reaction mixture was 2% v/v. Pooled human liver microsome suspension (20 mg/mL) was diluted with phosphate buffer to obtain a 5 mg/mL suspension. A solution of NADPH was prepared in phosphate buffer at a concentration of 5 mM. Separate stock solutions of each substrate were prepared in DMSO:MeCN (50:50 v/v), mixed, and diluted in phosphate buffer to obtain a single solution containing each substrate at five times its experimentally determined Km concentration. The percent of organic solvent attributable to substrate mixture in the final reaction mixture was 1% v/v. Substrate solution and microsome suspension were combined in a 1:1 volume ratio, mixed, and distributed to reaction wells of a PCR plate. Individual test compound or combined inhibitor solutions at each concentration were added to the wells and mixed by repetitive aspirate-dispense cycles. […] Reaction mixtures were allowed to equilibrate at 37° C. for approximately two minutes before adding NADPH solution to initiate reaction, followed by pipette mixing of reaction mixture. Ten minutes after addition of NADPH, the reaction mixtures were quenched with cold acetonitrile. […] A portion of the supernatant was analyzed by gradient reverse-phase HPLC with detection by electrospray ionization triple quadrupole mass spectrometry in the positive ion mode. Data was fitted to sigmoid dose-response curves and the inhibitory potency of each test compound was determined as its IC50 value.

CYP2C19 = CYP2C19 (Homo sapiens (Human), UniProt P33261); assay: as above; assay type: in vitro ADME
Sequence of CYP2C19 (P33261 whole entry): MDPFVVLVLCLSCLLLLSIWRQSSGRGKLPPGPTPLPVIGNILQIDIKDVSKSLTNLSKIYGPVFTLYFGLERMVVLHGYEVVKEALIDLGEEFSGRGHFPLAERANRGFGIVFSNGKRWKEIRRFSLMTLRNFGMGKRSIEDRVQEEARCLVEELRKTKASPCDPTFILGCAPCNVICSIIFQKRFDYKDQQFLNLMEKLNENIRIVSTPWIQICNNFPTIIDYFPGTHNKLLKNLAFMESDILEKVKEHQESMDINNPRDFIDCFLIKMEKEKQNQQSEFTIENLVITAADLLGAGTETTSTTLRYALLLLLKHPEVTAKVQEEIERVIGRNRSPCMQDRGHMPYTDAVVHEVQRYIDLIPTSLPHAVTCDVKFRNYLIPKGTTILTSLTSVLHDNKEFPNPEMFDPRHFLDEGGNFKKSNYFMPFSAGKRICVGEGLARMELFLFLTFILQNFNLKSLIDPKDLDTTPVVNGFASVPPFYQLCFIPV
Method: as §1

CYP3A4 = CYP3A4 (Homo sapiens (Human), UniProt P08684); assay: as above; assay type: in vitro ADME
Sequence of CYP3A4 (P08684 whole entry): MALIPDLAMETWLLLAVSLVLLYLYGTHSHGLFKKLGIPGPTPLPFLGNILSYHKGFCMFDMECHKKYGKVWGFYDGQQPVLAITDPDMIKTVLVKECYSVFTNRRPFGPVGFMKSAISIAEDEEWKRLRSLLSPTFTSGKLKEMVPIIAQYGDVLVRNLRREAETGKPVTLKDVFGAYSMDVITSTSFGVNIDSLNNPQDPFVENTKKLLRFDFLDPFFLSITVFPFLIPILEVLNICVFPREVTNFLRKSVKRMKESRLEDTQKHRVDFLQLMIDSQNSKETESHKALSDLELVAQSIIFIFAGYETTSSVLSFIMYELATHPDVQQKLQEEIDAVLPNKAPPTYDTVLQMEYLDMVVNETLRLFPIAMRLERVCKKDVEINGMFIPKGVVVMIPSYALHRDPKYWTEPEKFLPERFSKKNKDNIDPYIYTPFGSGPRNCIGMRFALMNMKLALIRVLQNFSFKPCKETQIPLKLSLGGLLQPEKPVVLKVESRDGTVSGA
Method: as §1

C. albicans = assay: Minimum Inhibitory Concentration (MIC), CLSI M27-A2; assay type: cell-based; conditions: Candida albicans; about 50% growth reduction; approximately 48 h at 35°C
Method: Compounds were assessed for their ability to inhibit the growth of common strains of fungus, C. albicans using a standardized procedure (CLSI M27-A2). Stock solutions of the test compounds and standards were prepared in DMSO at 1,600 μg/mL (C. albicans). Eleven, serial, one-half dilutions of compounds were prepared in 96-well plates in RPMI+MOPS. The assay concentration ranges were […] (C. albicans). Cell suspensions of C. albicans were prepared and added to each well at concentrations of approximately 3.7×10^3 colony-forming-units per milliliter (cfu/mL). All testing was in duplicate. The inoculated plates were incubated for approximately 48 h at 35±1° C. At the completion of incubation the wells of each plate were evaluated visually for the presence of fungal growth. […] For QC purposes C. krusei isolate ATCC 6258 (4.0×10^3 efu/mL) was included in the VOR assay.

Sequence of CYP2C9 (P11712 whole entry): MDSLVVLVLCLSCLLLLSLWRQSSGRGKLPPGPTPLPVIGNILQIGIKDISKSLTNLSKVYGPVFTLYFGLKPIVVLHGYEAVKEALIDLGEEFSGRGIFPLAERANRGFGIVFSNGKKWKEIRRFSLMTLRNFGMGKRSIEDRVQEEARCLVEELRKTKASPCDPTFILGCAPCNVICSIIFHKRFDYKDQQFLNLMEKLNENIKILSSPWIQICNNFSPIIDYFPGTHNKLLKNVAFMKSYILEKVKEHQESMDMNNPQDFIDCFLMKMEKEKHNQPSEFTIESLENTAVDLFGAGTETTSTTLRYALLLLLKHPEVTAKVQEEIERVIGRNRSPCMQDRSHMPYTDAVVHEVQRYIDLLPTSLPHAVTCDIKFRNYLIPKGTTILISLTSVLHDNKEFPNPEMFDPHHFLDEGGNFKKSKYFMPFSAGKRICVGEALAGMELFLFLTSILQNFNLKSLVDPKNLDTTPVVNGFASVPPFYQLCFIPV

| IC50 (CYP2C9) [µM] | IC50 (CYP2C19) [µM] | IC50 (CYP3A4) [µM] | MIC (C. albicans) [ng/mL] | SMILES |
| --- | --- | --- | --- | --- |
| 3.1 | 11 | 3.8 | ≤ 1 | OC(Cn1cncn1)(c1ccc(F)cc1F)C(F)(F)c1ccc(-c2ccc(OC(F)(F)F)cc2)cn1 [Example 18, 2-(2,4-Difluorophenyl)-1,1-difluoro-3-(1H-1,2,4-triazol-1-yl)-L-(5-(4-(trifluoromethoxy)phenyl)pyridin-2-yl)propan-2-ol] |
|  |  |  | ≤ 1 | OC(Cn1cncn1)(c1ccc(F)cc1F)C(F)(F)c1ccc(-c2ccc(OCC(F)(F)F)cc2)cn1 (stereo not drawn) [Example 17, 2-(2,4-difluorophenyl)-1,1-difluoro-3-(1H-1,2,4-triazol-1-yl)-1-(5-(4-(2,2,2-trifluoroethoxy)phenyl)pyridin-2-yl)propan-2-ol] |
|  |  |  | 2 (≈ 4.48 nM) | OC(Cn1cncn1)(c1ccc(F)cc1F)C(F)(F)c1ccc(-c2ccc(F)cc2)cn1 (stereo not drawn) [Example 16, 2-(2,4-Difluorophenyl)-1,1-difluoro-1-(5-(4-fluorophenyl)pyridin-2-yl)-3-(1H-1,2,4-triazol-1-yl)propan-2-ol] |
